Measured values as given in ChEMBL document CHEMBL1138899, “Acyclic nucleoside analogues as inhibitors of Plasmodium falciparum dUTPase” (J Med Chem, 2006).

How the values were obtained:
[1] = molecular target: T1, dUTP pyrophosphatase (Plasmodium falciparum 3D7) (UniProt Q8II92); assay: Selectivity index, human dUTPase/Plasmodium falciparum dUTPase
T1 sequence (whole entry): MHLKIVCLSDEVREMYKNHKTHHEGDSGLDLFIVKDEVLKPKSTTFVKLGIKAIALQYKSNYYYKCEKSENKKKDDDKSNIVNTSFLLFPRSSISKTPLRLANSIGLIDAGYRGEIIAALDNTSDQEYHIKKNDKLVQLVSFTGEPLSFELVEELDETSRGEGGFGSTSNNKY

[2] = molecular target: T2, Deoxyuridine 5'-triphosphate nucleotidohydrolase, mitochondrial (Homo sapiens, UniProt P33316); assay: Inhibition of human recombinant dUTPase
T2 sequence (P33316 whole entry): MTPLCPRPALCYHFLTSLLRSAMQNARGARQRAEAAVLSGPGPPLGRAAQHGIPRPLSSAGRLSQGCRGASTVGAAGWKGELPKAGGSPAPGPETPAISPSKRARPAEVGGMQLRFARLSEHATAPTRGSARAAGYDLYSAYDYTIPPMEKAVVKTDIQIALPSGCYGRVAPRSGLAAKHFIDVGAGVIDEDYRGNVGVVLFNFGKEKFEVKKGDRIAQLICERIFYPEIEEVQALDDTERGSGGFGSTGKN

Plasmodium falciparum = assay: Antiplasmodial activity against Plasmodium falciparum; format: functional, organism-based
dUTP pyrophosphatase = molecular target: T3, dUTP pyrophosphatase (Plasmodium falciparum 3D7, UniProt Q8II92); assay: Inhibition of Plasmodium falciparum dUTPase
T3 sequence (Q8II92 whole entry): T1 sequence (whole entry)

L6 = assay: Cytotoxicity against rat L6 cells; format: functional, cell-based
[3] = Stability in simulated gastric fluid after 0.2 mins; format: ADME; conditions: read-out: Stability
[4] = Intrinsic clearance in human liver microsome; format: ADME; conditions: liver microsomes
[5] = Stability in simulated gastric fluid after 150 mins; format: ADME; conditions: read-out: Stability
[6] = Stability in simulated gastric fluid after 5 mins; format: ADME; conditions: read-out: Stability

SMILES	Ki [2]	IC50 (Plasmodium falciparum)	Ki (dUTP pyrophosphatase)	remaining at 2.5 h [5]	Selectivity index [1]	IC50 (L6)	remaining at 12 s [3]	microsomal CLint [4]	remaining at 5 min [6]
CC(C)(C)[Si](OCCCCCCn1ccc(=O)[nH]c1=O)(c1ccccc1)c1ccccc1	> 1000 µM	3.9 µM	8.5 µM	–	> 118	18 µM	–	–	–
O=c1ccn(CCCCCO[Si](c2ccccc2)(c2ccccc2)c2ccccc2)c(=O)[nH]1	> 1000 µM	0.38 µM	3.8 µM	–	> 265	47 µM	–	–	–
O=c1ccn(CCCCO)c(=O)[nH]1	> 1000 µM	235 µM	> 1000 µM	–	–	–	–	–	–
O=c1ccn(CCCCO[Si](c2ccccc2)(c2ccccc2)c2ccccc2)c(=O)[nH]1	> 1000 µM	0.36 µM	2.2 µM	–	> 446	–	< 2%	69 µL/min/mg	–
O=c1ccn([C@H]2C[C@H](O)[C@@H](CO[Si](c3ccccc3)(c3ccccc3)c3ccccc3)O2)c(=O)[nH]1	–	1.1 µM	–	–	–	–	–	–	–
O=c1ccn(CCCO[Si](c2ccccc2)(c2ccccc2)c2ccccc2)c(=O)[nH]1	25 µM	0.58 µM	1.6 µM	–	16	70 µM	–	–	–
O=c1ccn([C@H]2C[C@H](O)[C@@H](COC(c3ccccc3)(c3ccccc3)c3ccccc3)O2)c(=O)[nH]1	18 µM	6 µM	–	–	10	192 µM	–	–	–
O=c1ccn(CCCNC(c2ccccc2)(c2ccccc2)c2ccccc2)c(=O)[nH]1	1.4 µM	4.4 µM	0.2 µM	–	7	107 µM	–	–	–
O=c1ccn(CCCCCCOC(c2ccccc2)(c2ccccc2)c2ccccc2)c(=O)[nH]1	476 µM	2.3 µM	9.6 µM	–	50	44 µM	–	–	–
O=c1ccn([C@H]2C[C@H](O)[C@@H](CNC(c3ccccc3)(c3ccccc3)c3ccccc3)O2)c(=O)[nH]1	46 µM	4.5 µM	–	–	–	44 µM	–	–	–
OC(c1ccccc1)(c1ccccc1)c1ccccc1 [TRIPHENYLMETHANOL]	> 1000 µM	12 µM	> 1000 µM	–	–	–	–	–	–
O=c1ccn(CC(CO)CCOC(c2ccccc2)(c2ccccc2)c2ccccc2)c(=O)[nH]1 (configuration not stated)	260 µM	1.2 µM	2.2 µM	–	–	33 µM	–	–	–
O[Si](c1ccccc1)(c1ccccc1)c1ccccc1	> 1000 µM	0.65 µM	> 1000 µM	–	–	138 µM	–	–	–
CC(C)(C)[Si](C)(C)O	–	> 37 µM	–	–	–	> 680 µM	–	–	–
O=C(OCCCCn1ccc(=O)[nH]c1=O)c1ccccc1	496 µM	38 µM	224 µM	–	2	–	–	–	–
[N-]=[N+]=NCC(CCOC(c1ccccc1)(c1ccccc1)c1ccccc1)Cn1ccc(=O)[nH]c1=O (configuration not stated)	> 1000 µM	0.64 µM	23 µM	–	–	18 µM	–	–	–
O=c1ccn(CCCCCCNC(c2ccccc2)(c2ccccc2)c2ccccc2)c(=O)[nH]1	> 1000 µM	1.1 µM	1.8 µM	–	> 543	40 µM	–	–	–
CC(C)(C)[Si](C)(C)OCCCn1ccc(=O)[nH]c1=O	73 µM	> 18 µM	73 µM	–	1	192 µM	–	–	–
O=c1ccn(CCCCOC(c2ccccc2)(c2ccccc2)c2ccccc2)c(=O)[nH]1	> 1000 µM	4.9 µM	1.6 µM	–	> 617	42 µM	–	68 µL/min/mg	2%
O=c1ccn(CCCCCNC(c2ccccc2)(c2ccccc2)c2ccccc2)c(=O)[nH]1	> 1000 µM	2.2 µM	–	–	> 233	39 µM	–	–	–
O=c1ccn(CCCOC(c2ccccc2)(c2ccccc2)c2ccccc2)c(=O)[nH]1	313 µM	7.5 µM	87 µM	–	4	34 µM	–	–	–
O=c1ccn(CCCCCO)c(=O)[nH]1	> 1000 µM	20 µM	> 1000 µM	–	–	> 454 µM	–	–	–
O=c1ccn(C/C=C\COC(c2ccccc2)(c2ccccc2)c2ccccc2)c(=O)[nH]1	5.2 µM	3.5 µM	1.2 µM	–	4	39 µM	–	–	–
O=c1ccn(CCCCCCO[Si](c2ccccc2)(c2ccccc2)c2ccccc2)c(=O)[nH]1	383 µM	0.46 µM	1.7 µM	–	227	50 µM	< 2%	35 µL/min/mg	–
O=c1ccn(CCCCCOC(c2ccccc2)(c2ccccc2)c2ccccc2)c(=O)[nH]1	> 1000 µM	1.1 µM	2 µM	–	> 500	24 µM	–	–	–

Now from value to compound, other results behind:

Ki [2]	IC50 (Plasmodium falciparum)	Ki (dUTP pyrophosphatase)	remaining at 2.5 h [5]	SMILES	Selectivity index [1]	IC50 (L6)	remaining at 12 s [3]	microsomal CLint [4]	remaining at 5 min [6]
> 1000 µM	15 µM	17 µM	–	O=C(NCCCCn1ccc(=O)[nH]c1=O)OCc1ccccc1	> 60	–	–	–	–
17 µM	0.9 µM	0.7 µM	–	O=c1ccn(COCCOC(c2ccccc2)(c2ccccc2)c2ccccc2)c(=O)[nH]1	25	39 µM	–	96 µL/min/mg	–
> 1000 µM	3.8 µM	–	94%	O=c1ccn(CCCCNC(c2ccccc2)(c2ccccc2)c2ccccc2)c(=O)[nH]1	> 1110	33 µM	–	64 µL/min/mg	–
> 1000 µM	3.7 µM	0.6 µM	–	O=c1ccn(C/C=C/COC(c2ccccc2)(c2ccccc2)c2ccccc2)c(=O)[nH]1	> 1670	34 µM	–	–	–
> 1000 µM	0.9 µM	2.5 µM	–	CC(C)(C)OC(=O)NCC(CCn1ccc(=O)[nH]c1=O)COC(c1ccccc1)(c1ccccc1)c1ccccc1 (configuration not stated)	–	–	–	–	–
636 µM	19 µM	> 1000 µM	–	O=c1ccn(CCCCCCO)c(=O)[nH]1	–	–	–	–	–
457 µM	2 µM	–	–	O=c1ccn([C@H]2C[C@H](F)[C@@H](COC(c3ccccc3)(c3ccccc3)c3ccccc3)O2)c(=O)[nH]1	–	–	–	–	–
63 µM	62 µM	44 µM	–	CC(C)(C)[Si](C)(C)OCCOCn1ccc(=O)[nH]c1=O	1.4	> 299 µM	–	–	–
> 1000 µM	> 29 µM	368 µM	–	O=c1ccn(CCCO)c(=O)[nH]1	> 2	–	–	–	–
5.7 µM	3.2 µM	0.24 µM	–	O=c1ccn(CCC(CO)CNC(c2ccccc2)(c2ccccc2)c2ccccc2)c(=O)[nH]1 (configuration not stated)	–	55 µM	–	–	–
74 µM	2.8 µM	1.3 µM	–	CC(=O)OCC(CCn1ccc(=O)[nH]c1=O)CNC(c1ccccc1)(c1ccccc1)c1ccccc1 (configuration not stated)	–	37 µM	–	–	–
898 µM	> 18 µM	9.2 µM	–	O=C(OCCCn1ccc(=O)[nH]c1=O)c1ccccc1	> 97	–	–	–	–
21 µM	1.9 µM	0.9 µM	–	O=c1ccn(CC(CCO)COC(c2ccccc2)(c2ccccc2)c2ccccc2)c(=O)[nH]1 (configuration not stated)	–	57 µM	–	–	–
311 µM	127 µM	98 µM	–	O=C(OCCOCn1ccc(=O)[nH]c1=O)c1ccccc1	3	202 µM	–	–	–
> 1000 µM	3.4 µM	32 µM	–	O=C(OCCCCCCn1ccc(=O)[nH]c1=O)c1ccccc1	> 31	–	–	–	–
> 1000 µM	17 µM	112 µM	–	CC(C)(C)OC(=O)NCCCCn1ccc(=O)[nH]c1=O	> 8	–	–	–	–
